From patent US20230059136A1, “THE COMPOUNDS AND COMPOSITIONS FOR TREATING CONDITIONS ASSOCIATED WITH NLRP ACTIVITY” (Novartis AG, priority 2018, published 2023)

What was measured:
[1] = tested on: IL-1β production in PMA-differentiated THP-1 cells; assay: hTHP-1 assay containing 10% fetal bovine serum (IL-1β production, gramicidin-stimulated THP-1 cells); assay type: cell-based, human; details: Homo sapiens
Protocol: Activity key: <0.008 μM=“++++++”; ≥0.008 and <0.04 μM=“+++++”; ≥0.04 and <0.2 μM=“++++”; ≥0.2 and <1 μM=“+++”; ≥1 and <5 μM=“++”; ≥5 and <30 μM=“+”. ND=not determined.

[2] = tested on: IL-1β production in PMA-differentiated THP-1 cells; assay: IL-1β production in PMA-differentiated THP-1 cells stimulated with gramicidin (hTHP-1 assay containing 2% fetal bovine serum); assay type: cell-based, human; details: Homo sapiens, THP-1, read-out: hTHP-1 IC50 in 2% FBS, average IC50, hTHP-1 assay containing 2% fetal bovine serum
Method in brief: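 IL-1β release was read by HTRF on supernatants of 50,000 PMA-primed (20 ng/ml, 16-18 h) THP-1 cells/well in 2% FBS medium. Cells saw compound for 1 h (11-point titration from 100 μM, 0.37% DMSO) before a 2 h gramicidin (5 μM) challenge.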

[3] = THP-1, read-out: hTHP-1 IC50 in 10% FBS, average IC50

Row | SMILES | IC50 [1, 3] [µM] | IC50 [2] [µM] | IC50 ([1]; THP-1, read-out: hTHP-1 IC50 in 10% FBS, average IC50, given as numeric bound) [µM] | IC50 ([2]; given as numeric bound) [µM]
1 | CC(C)c1c2c(c3c(c1CC(=O)N=S(N)(=O)c1sc(C(C)(C)O)cc1F)CCC3)COC2 (single isomer, unassigned) [Example 411, (R) or (S)-N-(amino(3-fluoro-5-(2-hydroxypropan-2-yl)thiophen-2-yl)(oxo)-λ^6-sulfaneylidene)-2-(4-isopropyl-3,6,7,8-tetrahydro-1H-indeno[4,5-c]furan-5-yl)acetamide] | 0.2 to 1 | 0.2 to 1 | – | –
2 | CC(C)c1c2c(c3c(c1CC(=O)N=S(N)(=O)c1sc(C(C)(C)O)cc1F)CCC3)COC2 (single isomer, unassigned) [Example 412, (S) or (R)-N-(amino(3-fluoro-5-(2-hydroxypropan-2-yl)thiophen-2-yl)(oxo)-λ^6-sulfaneylidene)-2-(4-isopropyl-3,6,7,8-tetrahydro-1H-indeno[4,5-c]furan-5-yl)acetamide] | – | – | > 30 | > 30
3 | CC(C)c1cccc(C(C)C)c1CC(=O)N=S(N)(=O)c1ccc(CCNC(=O)CCCc2ccccc2)cc1 (stereo not drawn) [Compound 409] | 0.2 to 1 | 1 to 5 | – | –
